In patent US10987359B2, “Oxadiazepinone derivatives and methods of treating hepatitis B infections” (priority 2016, dated 2021):
pEC50: −log10 of the molar value.

Test system: HBV
Assay: HBV replication inhibition assay (BDNA assay) in HepG2.2.15 cells
Assay type: cell-based
Conditions: Hepatitis B virus, HepG2.2.15, HBV replication assay (BDNA assay), HepG2.2.15 cells; read-out: DNA EC50
How it was run: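 Supernatant encapsidated HBV DNA was measured by bDNA after DNase digestion and proteinase K release. Stably HBV-integrated HepG2.2.15 cells had two 3-day compound exposures (0.5% DMSO). Signals were background-subtracted and normalized to DMSO wells, and EC50 was obtained by four-parameter fit.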

Row | Structure (SMILES) | pEC50
1 | CN1OC(CO)Cn2nc3c(c2C1=O)CN(C(=O)Nc1cc(Cl)c(Cl)cc1F)CC3 (centres unmarked) [Compound 027, N-(4,5-dichloro-2-fluorophenyl)-4-(hydroxymethyl)-2-methyl-1-oxo-1,4,5,8,9,11-hexahydropyrido[4′,3′:3,4]pyrazolo[5,1-d][1,2,5]oxadiazepine-10(2H)-carboxamide] | 7.00 to 9.00
2 | CN1OC(CO)Cn2nc3c(c2C1=O)CN(C(=O)Nc1cccc(S(F)(F)(F)(F)F)c1)CC3 (centres unmarked) [Compound 029, 4-(hydroxymethyl)-2-methyl-1-oxo-N-(3-(pentafluoro-16-sulfanyl)phenyl)-1,4,5,8,9,11-hexahydropyrido[4′,3′:3,4]pyrazolo[5,1-d][1,2,5]oxadiazepine-10(2H)-carboxamide] | 7.00 to 9.00
3 | CN1OC(CO)Cn2nc3c(c2C1=O)CN(C(=O)Nc1cccc(Cl)c1)CC3 (centres unmarked) [Compound 030, N-(3-chlorophenyl)-4-(hydroxymethyl)-2-methyl-1-oxo-1,4,5,8,9,11-hexahydropyrido[4′,3′:3,4]pyrazolo[5,1-d][1,2,5]oxadiazepine-10(2H)-carboxamide] | 7.00 to 9.00
4 | CN1OC(CF)Cn2nc3c(c2C1=O)CN(C(=O)Nc1cccc(C(F)(F)F)c1)CC3 (centres unmarked) [Compound 036, 4-(fluoromethyl)-2-methyl-1-oxo-N-(3-(trifluoromethyl)phenyl)-1,4,5,8,9,11-hexahydropyrido[4′,3′:3,4]pyrazolo[5,1-d][1,2,5]oxadiazepine-10(2H)-carboxamide] | 7.00 to 9.00
5 | CN1OC(CO)Cn2nc3c(c2C1=O)CN(C(=O)N(C)c1ccc(F)c(Cl)c1)CC3 (centres unmarked) [Compound 045, N-(3-chloro-4-fluorophenyl)-4-(hydroxymethyl)-N,2-dimethyl-1-oxo-1,4,5,8,9,11-hexahydropyrido[4′,3′:3,4]pyrazolo[5,1-d][1,2,5]oxadiazepine-10(2H)-carboxamide] | 6.30 to 7.00
6 | CN1OC(CO)Cn2nc3c(c2C1=O)CN(C(=O)Nc1cccc(Cl)c1)CC3(C)C (centres unmarked) [Compound 046, N-(3-chlorophenyl)-4-(hydroxymethyl)-2,8,8-trimethyl-1-oxo-1,4,5,8,9,11-hexahydropyrido[4′,3′:3,4]pyrazolo[5,1-d][1,2,5]oxadiazepine-10(2H)-carboxamide] | 6.30 to 7.00
7 | CC1CN(C(=O)Nc2cccc(Cl)c2)Cc2c1nn1c2C(=O)N(C)OC(CO)C1 (centres unmarked) [Compound 047, N-(3-chlorophenyl)-4-(hydroxymethyl)-2,8-dimethyl-1-oxo-1,4,5,8,9,11-hexahydropyrido[4′,3′:3,4]pyrazolo[5,1-d][1,2,5]oxadiazepine-10(2H)-carboxamide] | 6.30 to 7.00
8 | CSCC1Cn2nc3c(c2C(=O)N(C)O1)CN(C(=O)Nc1ccc(F)c(Cl)c1)CC3 (centres unmarked) [Compound 048, N-(3-chloro-4-fluoro-phenyl)-2-methyl-4-(methylsulfanylmethyl)-1-oxo-5,8,9,11-tetrahydro-4H-pyrido[2,3]pyrazolo[2,4-d][1,2,5]oxadiazepine-10-carboxamide] | 7.00 to 9.00
9 | CN1OC(CS(C)(=O)=O)Cn2nc3c(c2C1=O)CN(C(=O)Nc1ccc(F)c(Cl)c1)CC3 (centres unmarked) [Compound 050, N-(3-chloro-4-fluorophenyl)-2-methyl-4-((methylsulfonyl)methyl)-1-oxo-1,4,5,8,9,11-hexahydropyrido[4′,3′:3,4]pyrazolo[5,1-d][1,2,5]oxadiazepine-10(2H)-carboxamide] | 7.00 to 9.00
10 | COC(=O)OCC1Cn2nc3c(c2C(=O)N(C)O1)CN(C(=O)Nc1ccc(F)c(Cl)c1)CC3 (centres unmarked) [Compound 051, (10-((3-chloro-4-fluorophenyl)carbamoyl)-2-methyl-1-oxo-1,2,4,5,8,9,10,11-octahydropyrido[4′,3′:3,4]pyrazolo[5,1-d][1,2,5]oxadiazepin-4-yl)methyl methyl carbonate] | 7.00 to 9.00
11 | CC(=O)OCC1Cn2nc3c(c2C(=O)N(C)O1)CN(C(=O)Nc1ccc(F)c(Cl)c1)CC3 (centres unmarked) [Compound 052, (10-((3-chloro-4-fluorophenyl)carbamoyl)-2-methyl-1-oxo-1,2,4,5,8,9,10,11-octahydropyrido[4′,3′:3,4]pyrazolo[5,1-d][1,2,5]oxadiazepin-4-yl)methyl acetate] | 7.00 to 9.00
12 | CC(C)OC(=O)OCC1Cn2nc3c(c2C(=O)N(C)O1)CN(C(=O)Nc1ccc(F)c(Cl)c1)CC3 (centres unmarked) [Compound 053, (10-((3-chloro-4-fluorophenyl)carbamoyl)-2-methyl-1-oxo-1,2,4,5,8,9,10,11-octahydropyrido[4′,3′:3,4]pyrazolo[5,1-d][1,2,5]oxadiazepin-4-yl)methyl isopropyl carbonate] | 7.00 to 9.00
13 | CN1OC(COC(=O)OC(C)(C)C)Cn2nc3c(c2C1=O)CN(C(=O)Nc1ccc(F)c(Cl)c1)CC3 (centres unmarked) [Compound 054, tert-butyl ((10-((3-chloro-4-fluorophenyl)carbamoyl)-2-methyl-1-oxo-1,2,4,5,8,9,10,11-octahydropyrido[4′,3′:3,4]pyrazolo[5,1-d][1,2,5]oxadiazepin-4-yl)methyl) carbonate] | 7.00 to 9.00
14 | CN1OC(COC(=O)C(C)(C)C)Cn2nc3c(c2C1=O)CN(C(=O)Nc1ccc(F)c(Cl)c1)CC3 (centres unmarked) [Compound 055, (10-((3-chloro-4-fluorophenyl)carbamoyl)-2-methyl-1-oxo-1,2,4,5,8,9,10,11-octahydropyrido[4′,3′:3,4]pyrazolo[5,1-d][1,2,5]oxadiazepin-4-yl)methyl pivalate] | 7.00 to 9.00
15 | CCOC(=O)OCC1Cn2nc3c(c2C(=O)N(C)O1)CN(C(=O)Nc1ccc(F)c(Cl)c1)CC3 (centres unmarked) [Compound 056, (10-((3-chloro-4-fluorophenyl)carbamoyl)-2-methyl-1-oxo-1,2,4,5,8,9,10,11-octahydropyrido[4′,3′:3,4]pyrazolo[5,1-d][1,2,5]oxadiazepin-4-yl)methyl ethyl carbonate] | 7.00 to 9.00
16 | CN1OC(COC(N)=O)Cn2nc3c(c2C1=O)CN(C(=O)Nc1ccc(F)c(Cl)c1)CC3 (centres unmarked) [Compound 057, (10-((3-chloro-4-fluorophenyl)carbamoyl)-2-methyl-1-oxo-1,2,4,5,8,9,10,11-octahydropyrido[4′,3′:3,4]pyrazolo[5,1-d][1,2,5]oxadiazepin-4-yl)methyl carbamate] | 7.00 to 9.00
17 | CN(C)CC1Cn2nc3c(c2C(=O)N(C)O1)CN(C(=O)Nc1ccc(F)c(Cl)c1)CC3 (centres unmarked) [Compound 058, N-(3-chloro-4-fluoro-phenyl)-4-[(dimethylamino)methyl]-2-methyl-1-oxo-5,8,9,11-tetrahydro-4H-pyrido[2,3]pyrazolo[2,4-d][1,2,5]oxadiazepine-10-carboxamide] | 7.00 to 9.00
18 | CN(C)C(=O)OCC1Cn2nc3c(c2C(=O)N(C)O1)CN(C(=O)Nc1ccc(F)c(Cl)c1)CC3 (centres unmarked) [Compound 059, [10-[(3-chloro-4-fluoro-phenyl)carbamoyl]-2-methyl-1-oxo-5,8,9,11-tetrahydro-4H-pyrido[2,3]pyrazolo[2,4-d][1,2,5]oxadiazepin-4-yl]methyl N,N-dimethylcarbamate] | 7.00 to 9.00
19 | CC1CON(C)C(=O)c2c3c(nn21)CCN(C(=O)Nc1ccc(F)c(Cl)c1)C3 (centres unmarked) [Compound 061, N-(3-chloro-4-fluoro-phenyl)-2,5-dimethyl-1-oxo-5,8,9,11-tetrahydro-4H-pyrido[2,3]pyrazolo[2,4-d][1,2,5]oxadiazepine-10-carboxamide] | 7.00 to 9.00
20 | CC1Cn2nc3c(c2C(=O)N(C)O1)CN(C(=O)Nc1ccc(F)c(Cl)c1)CC3 (centres unmarked) [Compound 062, N-(3-chloro-4-fluorophenyl)-2,4-dimethyl-1-oxo-1,4,5,8,9,11-hexahydropyrido[4′,3′:3,4]pyrazolo[5,1-d][1,2,5]oxadiazepine-10(2H)-carboxamide] | 7.00 to 9.00
